Data: ChEMBL document CHEMBL5518183, “Broad-spectrum antiviral strategy: Host-targeting antivirals against emerging and re-emerging viruses” (Eur J Med Chem, 2024)

Key:
Influenza A virus = assay: Antiviral activity against influenza A virus H1N1 infected in MDCK cells assessed as reduction in virus induced cytopathic effect by CPE assay; type: functional, organism-based
Influenza B virus = assay: Antiviral activity against Influenza B virus assessed as inhibition of virus-induced cytopathic effect; type: functional, organism-based
[1] = Cytotoxicity against African green monkey Vero cells assessed as reduction in cell viability measured after 72 hrs by MTT assay; type: toxicity, cell-based; details: chlorocebus sabaeus
Ebolavirus = assay: Antiviral activity against Ebola virus infected in African green monkey Vero cells incubated for 3 days by immunofocus assay; type: functional, organism-based; details: Orthoebolavirus, 72 h
SARS-CoV-2 [2] = assay: Antiviral activity against SARS-CoV-2 infected in BALB/c mouse assessed as survival rate at 10 uM measured after 3 to 5 days; type: functional, Severe acute respiratory syndrome coronavirus 2; details: time 3-5 day
SARS-CoV-2 [3] = assay: Antiviral activity against SARS-CoV-2 USA-WA1/2020 infected in human A549-ACE2 cells assessed as reduction in viral replication; type: functional, organism-based; details: Severe acute respiratory syndrome coronavirus 2, USA-WA1/2020, A549-ACE2
Caco-2 = assay: Cytotoxicity against human Caco-2 cells assessed as reduction in cell growth measured fpr 48 hrs by MTT assay; type: functional
SARS-CoV-2 [4] = assay: Antiviral activity against SARS-CoV-2 infected in African green monkey Vero E6 cells assessed as inhibition of viral replication; type: functional, organism-based; details: Severe acute respiratory syndrome coronavirus 2, Vero C1008
Dengue virus = assay: Antiviral activity against Dengue virus assessed as inhibition of viral replication; type: functional, organism-based
[5] = test system: Human immunodeficiency virus 1; assay: Antiviral activity against HIV1 TC-1 infected in human PBMC assessed as inhibition of viral replication; type: functional, organism-based; details: Human immunodeficiency virus 1, TC-1, PBMC
West Nile virus = assay: Antiviral activity against West Nile virus infected in human A549 cells assessed as reduction in virus replication incubated for 72 hrs by MTS assay; type: functional, organism-based; details: A549, 72 h
Hepatitis C virus [6] = assay: Antiviral activity against HCV infected in human Huh-7 cells assessed as reduction in viral infection incubated for 72 hrs by qRT-PCR analysis; type: functional, organism-based, Hepacivirus hominis; details: Huh-7, 72 h
[7] = test system: Respiratory syncytial virus; assay: Antiviral activity against RSV A2 infected in human HepG2 cells assessed as inhibition of virus induced cytopathic effect measured after 72 hrs by MTT assay; type: functional, organism-based; details: HepG2, 72 h
[8] = test system: Human immunodeficiency virus 1; assay: Antiviral activity against HIV-1 3B infected in human MT4 cells assessed as reduction in virus induced cytopathic effect incubated for 5 days by Cell Titer Glo luminescent assay; type: functional, organism-based; details: Human immunodeficiency virus 1, 3B, MT4, 120 h
[9] = test system: Respiratory syncytial virus; assay: Antiviral activity against RSV infected in human HepG2 cells assessed as inhibition of virus induced cytopathic effect measured for 60 mins by MTT assay; type: functional, organism-based; details: HepG2, 1 h
Hepatitis C virus [10] = assay: Antiviral activity against Hepatitis C virus infected in Huh7.5 cells assessed as reduction in viral growth; type: functional, organism-based, Hepacivirus hominis
Enterovirus A71 = assay: Antiviral activity against human EV71 infected in HEK293 cells assessed as reduction in viral replication at MOI of 1 incubated for 48 hrs by luciferase assay; type: functional, organism-based; details: Enterovirus A, HEK293, 48 h
Human coronavirus 229E = assay: Antiviral activity against HCoV-229E infected in human MRC5 cells incubated for 3 days measured by crystal violet staining based plaque counting analysis; type: functional, organism-based; details: MRC5, 72 h
[11] = test system: Middle East respiratory syndrome-related coronavirus; assay: Antiviral activity against MERS-CoV infected in human MRC5 cells assessed as reduction in viral replication measured after 48 hrs by qRT-PCR assay; type: functional, organism-based; details: MRC5, 48 h
dengue virus type 2 = assay: Antiviral activity against DENV-2 infected in human Huh-7 cells at MOI of 0.05 assessed as log reduction of intracellular viral titre measured after 60 hrs post infection by RT-PCR analysis; type: functional, organism-based; details: Huh-7, 60 h
[12] = test system: Human immunodeficiency virus 1; assay: Antiviral activity against HIV-1 infected in human MT4 cells assessed as reduction in virus induced cytopathic effect incubated for 5 days by Cell Titer Glo luminescent assay; type: functional, organism-based; details: Human immunodeficiency virus 1, MT4, 120 h
SARS-CoV-2 [13] = assay: Antiviral activity against SARS-CoV-2 infected in African green monkey Vero E6 cells assessed as reduction in viral replication incubated for 24 hrs by Immunofluorescence assay; type: functional, organism-based; details: Severe acute respiratory syndrome coronavirus 2, Vero C1008, 24 h
Hepatitis B virus = assay: Antiviral activity against HBV genotype A infected in human HepG2 cells assessed as inhibition of viral replication; type: functional, organism-based

## O=C(Nc1cccnc1)c1cccs1
Influenza A virus
  EC50: 2300 nM
Influenza B virus
  EC50: 2300 nM

## CCCCCN(CC)c1ccc(Oc2ccc(-c3c(C)c(=O)c4c(F)cccc4n3C)cc2F)cc1
[1]
  CC50 at 72 h: 10700 nM
Ebolavirus
  IC50: 7 nM

## CN(C)C(=O)COC(=O)Cc1ccc(OC(=O)c2ccc(NC(=N)N)cc2)cc1.CS(=O)(=O)O [CAMOSTAT MESILATE]
SARS-CoV-2 [2]
  Activity: 60%

## COc1ccc([C@H]2c3[nH]c4ccc(Cl)cc4c3CCN2C(=O)Oc2ccc(Cl)cc2)cc1 [EMVODODSTAT]
SARS-CoV-2 [3]
  EC50: 2 nM

## Cc1c(-c2ccc(-c3ccccc3F)cc2)nc2ccc(F)cc2c1C(=O)O [BREQUINAR]
Caco-2
  CC50: 231000 nM
SARS-CoV-2 [4]
  EC50: 123 nM

## CCCCc1cn(-c2ccc(NC(=O)Nc3ccccc3C)cc2)nn1
Dengue virus
  EC50: 970 nM
[5]
  EC50: 970 nM
West Nile virus
  EC50: 970 nM
Hepatitis C virus [6]
  EC50: 970 nM

## COCCNC(=O)[C@@H]1C[C@@H](Sc2nc3ccccc3[nH]2)CN1Cc1ccc2c(c1)Cc1ccccc1-2
[7]
  EC50: 2 nM
[8]
  EC50: 2 nM
[9]
  EC50: 2 nM
Hepatitis C virus [10]
  EC50: 2 nM

## O=C(CCNC(=O)c1ccc(OC(F)(F)F)cc1)C[C@H]1CCCc2ccccc21
Enterovirus A71
  IC50: 66 nM

## COC(=O)[C@H]1[C@@H](O)[C@@]2(O)c3c(OC)cc(O[C@@H]4O[C@@H]([C@H](O)CO)CO[C@H]4OC)cc3O[C@@]2(c2ccc(OC)cc2)[C@@H]1c1ccccc1 [SILVESTROL]
Human coronavirus 229E
  EC50: 3 nM
[11]
  EC50: 1.3 nM

## CN(/N=C/c1ccccc1C(=O)O)c1nc(-c2ccccc2Cl)cs1
Dengue virus type 2
  EC50: 17 nM

## Oc1ccccc1/C=N/Nc1nc(Nc2ccc(F)cc2)nc(Nc2ccc(F)cc2)n1
[12]
  EC50: 2 nM

## COc1cc2c(c(OC)n1)[C@]1(O)[C@H](O)[C@H](CN(C)C)[C@@H](c3ccccc3)[C@]1(c1ccc(C#N)cc1)O2 [ZOTATIFIN]
SARS-CoV-2 [13]
  EC50: 37 nM

## CC[C@@H]1NC(=O)[C@H]([C@@H]2O[C@@H](Sc3cccc(OCc4ccccc4)c3)C[C@H]2C)N(C)C(=O)[C@H](C(C)C)N(C)C(=O)[C@H](CC(C)C)N(C)C(=O)[C@H](CC(C)C)N(C)C(=O)[C@@H](C)NC(=O)[C@H](C)NC(=O)[C@H](CC(C)C)N(C)C(=O)[C@H](C(C)C)NC(=O)[C@H](CC(C)C)N(C)C(=O)CN(C)C1=O
Hepatitis B virus
  IC50: 110 nM
